These results are taken from patent US8883789B2, “Piperazine derivatives and their use as positive allosteric modulators of mGluR5 receptors” (Boehringer Ingelheim International GmbH, priority 2011, dated 2014).

The structures appear in SMILES notation.

T1 sequence (P41594 21-1212): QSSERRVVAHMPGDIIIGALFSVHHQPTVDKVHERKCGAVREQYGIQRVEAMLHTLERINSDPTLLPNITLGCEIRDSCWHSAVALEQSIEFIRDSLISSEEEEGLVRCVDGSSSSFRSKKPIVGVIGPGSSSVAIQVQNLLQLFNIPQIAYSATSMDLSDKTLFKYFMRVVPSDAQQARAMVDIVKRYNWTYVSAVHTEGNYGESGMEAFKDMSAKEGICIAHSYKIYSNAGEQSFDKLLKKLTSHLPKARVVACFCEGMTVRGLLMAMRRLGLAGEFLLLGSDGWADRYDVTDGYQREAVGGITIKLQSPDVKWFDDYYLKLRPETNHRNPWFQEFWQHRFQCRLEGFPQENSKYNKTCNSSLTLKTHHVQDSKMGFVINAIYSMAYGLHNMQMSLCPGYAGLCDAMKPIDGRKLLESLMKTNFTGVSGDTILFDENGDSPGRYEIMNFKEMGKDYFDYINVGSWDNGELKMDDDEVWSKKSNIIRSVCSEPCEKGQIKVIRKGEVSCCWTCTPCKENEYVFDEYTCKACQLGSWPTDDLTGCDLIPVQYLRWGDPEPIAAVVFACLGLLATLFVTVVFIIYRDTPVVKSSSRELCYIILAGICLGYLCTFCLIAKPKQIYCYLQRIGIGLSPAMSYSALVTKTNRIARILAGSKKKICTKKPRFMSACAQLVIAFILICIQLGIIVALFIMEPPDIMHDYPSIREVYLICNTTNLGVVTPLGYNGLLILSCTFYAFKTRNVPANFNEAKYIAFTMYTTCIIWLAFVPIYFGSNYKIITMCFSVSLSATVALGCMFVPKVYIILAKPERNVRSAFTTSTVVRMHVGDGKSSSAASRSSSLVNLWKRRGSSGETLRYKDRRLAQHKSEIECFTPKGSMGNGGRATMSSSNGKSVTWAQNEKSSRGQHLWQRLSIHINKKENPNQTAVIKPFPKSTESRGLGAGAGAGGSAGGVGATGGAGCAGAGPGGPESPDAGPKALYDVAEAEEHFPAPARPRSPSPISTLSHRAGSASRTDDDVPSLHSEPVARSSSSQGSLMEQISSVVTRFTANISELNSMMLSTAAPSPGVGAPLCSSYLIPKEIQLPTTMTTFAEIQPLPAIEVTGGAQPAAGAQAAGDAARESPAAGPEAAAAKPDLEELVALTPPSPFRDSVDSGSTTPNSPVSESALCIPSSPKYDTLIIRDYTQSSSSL

The assay addresses T1, human recombinant mGluR5 (Homo sapiens, UniProt P41594).
T1 construct: expressed in transfected cells; hygromycin and geneticin selection
Kind of assay: positive modulation of mGluR5, calcium based FLIPR assay. The note with it: HEK 293 cell line expressing human recombinant mGluR5; Ca2+ peak height after glutamate at approximately 5% basal stimulation; nonlinear regression. The method, boiled down: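 HEK293 cells with tetracycline-free induction, Calcium-4 dye-loaded in Ringer pH 7.4. Compound added 5 min before glutamate at ~5% of maximal effect, 1% DMSO. EC50 from peak Ca2+ fluorescence, normalized to basal glutamate (100%) and 10 μM CDPPB (200%), via nonlinear regression.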
Usually EC50 stands for the concentration needed to bring the measured effect to its halfway point. Turning to `COc1cccc(C(=O)N2CCN(C(=O)c3ncn(-c4cccc(Cl)c4)n3)[C@H](C)C2)n1` [Example 301, (R)-{4-[1-(3-Chloro-phenyl)-1H-[1,2,4]triazole-3-carbonyl]-3-methyl-piperazin-1-yl}-(6-methoxy-pyridin-2-yl)-methanone], the EC50 turned out to be 162 nM.

With `CC1(C)CN(C(=O)c2cccc(-c3ccncc3)n2)CCN1C(=O)c1ncn(-c2ccccc2)n1` [Example 111], the EC50 worked out at 215 nM. As for `CC1(C)CN(C(=O)c2cc3ccccc3c(C3CC3)n2)CCN1C(=O)c1nnn(-c2ccccc2)n1` [Example 205], the EC50 was found to be 42 nM. To `CC1(C)CN(C(=O)c2ccc(Cl)c(Cl)c2)CCN1C(=O)c1ncn(-c2cccc(Cl)c2)n1` [Example 27] belongs 80 nM. With `CC1(C)CN(C(=O)c2ccc(F)c(Cl)c2)CCN1C(=O)c1ncn(-c2ccccc2)n1` [Example 149] the figure was 353 nM. As to `COc1cccc(C(=O)N2CCN(C(=O)c3ncn(-c4cccc(Br)c4)n3)C(C)C2)n1` (stereo not shown) [Example 299], the EC50 worked out at 376 nM. With `CC1(C)CN(C(=O)c2cccc(N3CCCC3)n2)CCN1C(=O)c1ncn(-c2cccc(Cl)c2)n1` [Example 51], the EC50 came out at 102 nM. To `CC1(C)CN(C(=O)c2cccc(C3CCC3)n2)CCN1C(=O)c1ncn(-c2ccccc2)n1` [Example 137] belongs 69 nM; to `CC1(C)CN(C(=O)c2cc(Br)c(Br)o2)CCN1C(=O)c1ncn(-c2cccc(F)c2)n1` [Example 175], 104 nM; to `Cc1c(C(=O)N2CCN(C(=O)c3ncn(-c4ccccc4)n3)C(C)(C)C2)oc2ccccc12` [Example 134], 21 nM.

Turning to `Cn1nc(C(=O)N2CCN(C(=O)c3ncn(-c4ccccc4)n3)C(C)(C)C2)c2ccccc21` [Example 123], the EC50 was 254 nM. Regarding `CC1(C)CN(C(=O)c2cccc(C3CC3)n2)CCN1C(=O)c1nnn(-c2ccccc2)n1` [Example 180, [4-(6-Cyclopropyl-pyridine-2-carbonyl)-2,2-dimethyl-piperazin-1-yl]-(2-phenyl-2H-tetrazol-5-yl)-methanone], the EC50 turned out to be 16 nM. With `CC1(C)CN(C(=O)c2cccc(C3(F)COC3)c2)CCN1C(=O)c1ncn(-c2cccc(Cl)c2)n1` [Example 23], the EC50 is 58 nM.

With `CC1CN(C(=O)c2cc3ccccc3o2)CCN1C(=O)c1ncn(-c2cccc(Cl)c2)n1` (stereo not shown) [Example 267], the EC50 was 558 nM. As to `CC1(C)CN(C(=O)c2cccc(-c3ccncc3)n2)CCN1C(=O)c1ncn(-c2cccc(Cl)c2)n1` [Example 86], the EC50 worked out at 164 nM. For the molecule `Cc1c(C(=O)N2CCN(C(=O)c3ncn(-c4cccc(Cl)c4)n3)CC2C)oc2ccc(F)cc12` (stereo not shown) [Example 212], the EC50 was 568 nM. With `COc1ccc2c(C)c(C(=O)N3CCN(C(=O)c4ncn(-c5cccc(Cl)c5)n4)CC3C)oc2c1` (stereo not shown) [Example 213] the figure was 817 nM. To `CC1CN(C(=O)c2ncn(-c3cccc(Cl)c3)n2)CCN1C(=O)c1ccc2c(c1)nc(CC1CCCC1)n2C` (stereo not shown) [Example 229] belongs 512 nM.

Take `Cc1c(C(=O)N2CCN(C(=O)c3ncn(-c4ccccc4)n3)C(C)C2)oc2ccc(F)cc12` (stereo not shown) [Example 294]: the half-maximal effective concentration (EC50) worked out at 1080 nM.

Take `COc1cccc(C(=O)N2CCN(C(=O)c3nnn(-c4cccc(C)c4)n3)C(C)(C)C2)n1` [Example 198]: the EC50 is 123 nM. With `COc1ccc(C(=O)N2CCN(C(=O)c3ncn(-c4ccccc4)n3)C(C)(C)C2)s1` [Example 119] the figure was 695 nM; with `CC1CN(C(=O)c2ncn(-c3cccc(Cl)c3)n2)CCN1C(=O)c1ccc2ccn(C)c2c1` (stereo not shown) [Example 222], 294 nM; with `Cc1c(C(=O)N2CCN(C(=O)c3ncn(-c4cccc(Cl)c4)n3)C[C@H]2C)oc2ccc(F)cc12` [Example 250], 371 nM. For `COc1cccc(C(=O)N2CCN(C(=O)c3ncn(-c4ccccc4)n3)CC2C)n1` (stereo not shown) [Example 247], the EC50 was found to be 373 nM. With `CC1(C)CN(C(=O)c2cccc(-c3ccc(C#N)cc3)c2)CCN1C(=O)c1ncn(-c2cccc(Cl)c2)n1` [Example 78] the figure was 146 nM; with `CC1(C)CN(C(=O)c2cc(Cl)c3c(c2)OCCO3)CCN1C(=O)c1ncn(-c2cccc(F)c2)n1` [Example 3], 86 nM. To `COc1cccc(C(=O)N2CCN(C(=O)c3ncn(-c4cccc(F)c4)n3)C3(CC3)C2)n1` [Example 304, {4-[1-(3-Fluoro-phenyl)-1H-[1,2,4]-triazole-3-carbonyl]-4,7-diaza-spiro[2.5]oct-7-yl}-(6-methoxy-pyridin-2-yl)-methanone] belongs 845 nM.

Take `COc1cc2cc(C(=O)N3CCN(C(=O)c4ncn(-c5cccc(Cl)c5)n4)C(C)(C)C3)nc(OC)c2cc1OC` [Example 32]: the EC50 turned out to be 179 nM.

For the molecule `Cc1ccc2oc(C(=O)N3CCN(C(=O)c4ncn(-c5cccc(Cl)c5)n4)C(C)C3)c(C)c2c1` (stereo not shown) [Example 281], the EC50 turned out to be 1500 nM.

Consider `Cc1cccc(C(=O)N2CCN(C(=O)c3ncn(-c4ccccc4)n3)C(C)(C)C2)c1` [Example 117], for which the EC50 came out at 208 nM. To `CC1(C)CN(C(=O)c2ccccc2)CCN1C(=O)c1ncn(-c2ccccc2)n1` [Example 112] belongs 770 nM. Take `COc1nc(C(=O)N2CCN(C(=O)c3ncn(-c4ccc(F)c(C)c4)n3)C(C)(C)C2)cc2ccccc12` [Example 160, [1-(4-Fluoro-3-methyl-phenyl)-1H-[1,2,4]triazol-3-yl]-[4-(1-methoxy-isoquinoline-3-carbonyl)-2,2-dimethyl-piperazin-1-yl]-methanone]: the EC50 is 207 nM. To `COc1cc(Br)cc(C(=O)N2CCN(C(=O)c3ncn(-c4cccc(Cl)c4)n3)C(C)(C)C2)n1` [Example 12] belongs 19 nM; to `Cn1ccc2cc(C(=O)N3CCN(C(=O)c4ncn(-c5ccccc5)n4)C(C)(C)C3)ccc21` [Example 138], 136 nM. `CC1(C)CN(C(=O)c2cccc(C3CCOCC3)n2)CCN1C(=O)c1ncn(-c2cccc(Cl)c2)n1` [Example 176, [1-(3-Chloro-phenyl)-1H-[1,2,4]-triazol-3-yl]-{2,2-dimethyl-4-[6-(tetrahydro-pyran-4-yl)-pyridine-2-carbonyl]-piperazin-1-yl}-methanone]: the EC50 worked out at 366 nM. To `CC1(C)CN(C(=O)c2cc(Cl)c(F)c(Cl)c2)CCN1C(=O)c1ncn(-c2ccccc2)n1` [Example 156] belongs 232 nM; to `Cc1cc(-n2cnc(C(=O)N3CCN(C(=O)c4c(C)oc5ccccc45)CC3(C)C)n2)ccc1F` [Example 163], 1510 nM; to `COc1cccc(C(=O)N2CCN(C(=O)c3nnn(-c4cccc(C)c4)n3)CC2C)n1` (stereo not shown) [Example 243, (6-Methoxy-pyridin-2-yl)-[2-methyl-4-(2-m-tolyl-2H-tetrazole-5-carbonyl)-piperazin-1-yl]-methanone], 365 nM. With `CC1(C)CN(C(=O)c2cccc(C3CCCC3)c2)CCN1C(=O)c1ncn(-c2ccccc2)n1` [Example 144] the figure was 23 nM; with `CC1(C)CN(C(=O)c2cccc(F)c2)CCN1C(=O)c1ncn(-c2ccccc2)n1` [Example 114], 233 nM; with `CC1(C)CN(C(=O)c2cccc(-c3cnco3)c2)CCN1C(=O)c1ncn(-c2ccccc2)n1` [Example 127], 296 nM. Take `CC1(C)CN(C(=O)c2cccc(C3CCCC3)n2)CCN1C(=O)c1ncn(-c2cccc(Cl)c2)n1` [Example 177, [1-(3-Chloro-phenyl)-1H-[1,2,4]-triazol-3-yl]-[4-(6-cyclopentyl-pyridine-2-carbonyl]-2,2-dimethyl-piperazin-1-yl]-methanone]: the concentration giving a half-maximal response (EC50) turned out to be 37 nM.

Regarding `Cc1cc(C)cc(C(=O)N2CCN(C(=O)c3ncn(-c4cccc(Cl)c4)n3)C(C)(C)C2)c1` [Example 70], the EC50 worked out at 142 nM.

As for `CC1(C)CN(C(=O)c2cccc(-c3ccncc3)c2)CCN1C(=O)c1ncn(-c2cccc(Cl)c2)n1` [Example 30], the EC50 amounted to 115 nM. As to `CC1CN(C(=O)c2cc(Cl)c3c(c2)OCCO3)CCN1C(=O)c1ncn(-c2cccc(Cl)c2)n1` (stereo not shown) [Example 283], the EC50 stood at 233 nM. To `Cc1cccc(-n2cnc(C(=O)N3CCN(C(=O)c4cc(Br)c(Br)o4)CC3(C)C)n2)c1` [Example 8] belongs 53 nM; to `Cc1ccc(C(=O)N2CCN(C(=O)c3ncn(-c4cccc(Cl)c4)n3)C(C)(C)C2)cc1Cl` [Example 71], 47 nM; to `CC1(C)CN(C(=O)c2cccc(Cl)c2)CCN1C(=O)c1nnn(-c2ccc(F)cc2)n1` [Example 193], 173 nM. To `Cc1cc(C(=O)N2CCN(C(=O)c3ncn(-c4cccc(Cl)c4)n3)C(C)(C)C2)ccc1F` [Example 64] belongs 262 nM; to `COc1cc(OC)cc(C(=O)N2CCN(C(=O)c3ncn(-c4cccc(Cl)c4)n3)C(C)C2)c1` (stereo not shown) [Example 280], 476 nM.

For the molecule `COc1cccc(C(=O)N2CCN(C(=O)c3ncn(-c4cccc(Br)c4)n3)CC2C)n1` (stereo not shown) [Example 245], the EC50 came to 357 nM. Regarding `CC1(C)CN(C(=O)c2cc3nccc(-c4ccccc4)n3n2)CCN1C(=O)c1ncn(-c2cccc(Cl)c2)n1` [Example 67], the EC50 stood at 29 nM. To `CC1(C)CN(C(=O)c2cc(Cl)c3c(c2)OCCO3)CCN1C(=O)c1ncn(-c2ccccc2)n1` [Example 104] belongs 50 nM. For the molecule `CC1CN(C(=O)c2cc3c(Cl)cccc3s2)CCN1C(=O)c1ncn(-c2cccc(Cl)c2)n1` (stereo not shown) [Example 268], the EC50 stood at 327 nM. In the case of `CC(C)COc1cccc(C(=O)N2CCN(C(=O)c3ncn(-c4ccccc4)n3)C(C)(C)C2)c1` [Example 129], the EC50 stood at 88 nM.

For `CCC1CN(C(=O)c2ncn(-c3cccc(F)c3)n2)CCN1C(=O)c1cccc(OC)n1` (stereo not shown) [Example 259], the EC50 amounted to 231 nM.

In the case of `CC1(C)CN(C(=O)c2cc(Cl)cc(C(F)(F)F)c2)CCN1C(=O)c1ncn(-c2cccc(Cl)c2)n1` [Example 29], the EC50 is 109 nM. To `COC(C)c1cccc(C(=O)N2CCN(C(=O)c3ncn(-c4ccccc4)n3)C(C)(C)C2)c1` (stereo not shown) [Example 116] belongs 388 nM.
